{"source": "PubChem BioAssay AID2060508", "about": "(Molecular Pharmacology Branch, DTP, NCI, 2025)"}
{"test_system": "454973-116-R2-J3-PDC spheroids, viability, % test/control", "test": "Anticancer human tumor 454973-116-R2-J3-PDC patient-derived pancreatic carcinoma cell line growth inhibition [GQUAD]", "conditions": "second compound 3.16 µM; first compound 0.0316 µM; stronger effect = lower value; spheroids with HUVEC and MSC", "how_it_was_run": "(§1)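 Multi-cell-type spheroids of tumor cells with HUVEC and mesenchymal stem cells, treated with drug combinations. Concentrations descend in half-log steps from near clinical Cmax, or from 10 microM where Cmax is unknown; viability read-out.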", "units": {"viability, T/C": "%"}}
{"smiles": "O=C(c1cc(Cc2n[nH]c(=O)c3ccccc23)ccc1F)N1CCN(C(=O)C2CC2)CC1", "note": "+ CN(C)c1ccc(Nc2c3ccc(NC(=O)CCN4CCCC4)cc3nc3cc(NC(=O)CCN4CCCC4)ccc23)cc1", "viability, T/C": 90.7}
{"test_system": "454973-116-R2-J3-PDC spheroids, viability, % test/control", "test": "Anticancer human tumor 454973-116-R2-J3-PDC cell line growth inhibition [GQUAD];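 further: spheroids exposed to compounds for seven days; 100% = DMSO vehicle control viability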", "conditions": "second compound 3.16 µM; first compound 0.0999 µM; stronger effect = lower value; spheroids with HUVEC and MSC", "how_it_was_run": "as §1", "units": {"viability, T/C": "%"}}
{"smiles": "Cn1ncnc1[C@H]1c2n[nH]c(=O)c3cc(F)cc(c23)N[C@@H]1c1ccc(F)cc1", "note": "+ CN(C)c1ccc(Nc2c3ccc(NC(=O)CCN4CCCC4)cc3nc3cc(NC(=O)CCN4CCCC4)ccc23)cc1", "viability, T/C": 82}
{"test_system": "454973-116-R2-J3-PDC spheroids, viability, % test/control", "test": "Anticancer human tumor 454973-116-R2-J3-PDC cell line growth inhibition [GQUAD];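 further: spheroids exposed to compounds for seven days; 100% = DMSO vehicle control viability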", "conditions": "second compound 3.16 µM; first compound 0.1 µM; stronger effect = lower value; spheroids with HUVEC and MSC", "how_it_was_run": "as §1", "units": {"viability, T/C": "%"}}
{"smiles": "C=CC(=O)N1CCN(c2nc(=O)n(-c3c(C)ccnc3C(C)C)c3nc(-c4c(O)cccc4F)c(F)cc23)C(C)C1", "note": "(stereo unspecified) + CN(C)c1ccc(Nc2c3ccc(NC(=O)CCN4CCCC4)cc3nc3cc(NC(=O)CCN4CCCC4)ccc23)cc1", "viability, T/C": 90.7}
{"smiles": "CC1COCCN1c1cc(C2(O)CC3CCC(C2)O3)c2cnn(-c3ccn[nH]3)c2n1", "note": "(stereo unspecified) + CN(C)c1ccc(Nc2c3ccc(NC(=O)CCN4CCCC4)cc3nc3cc(NC(=O)CCN4CCCC4)ccc23)cc1", "viability, T/C": 63.2}
{"smiles": "Cc1cccc(N(C)C(=O)C2C(O)CCN2c2nc(C)cc(C(F)(F)F)c2C#N)c1", "note": "(stereo unspecified) + CN(C)c1ccc(Nc2c3ccc(NC(=O)CCN4CCCC4)cc3nc3cc(NC(=O)CCN4CCCC4)ccc23)cc1", "viability, T/C": 90}
{"smiles": "O=C(c1cc(Cc2n[nH]c(=O)c3ccccc23)ccc1F)N1CCN(C(=O)C2CC2)CC1", "note": "+ CN(C)c1ccc(Nc2c3ccc(NC(=O)CCN4CCCC4)cc3nc3cc(NC(=O)CCN4CCCC4)ccc23)cc1", "viability, T/C": 91.7}
{"test_system": "454973-116-R2-J3-PDC spheroids, viability, % test/control", "test": "Anticancer human tumor 454973-116-R2-J3-PDC cell line growth inhibition [GQUAD];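 further: spheroids exposed to compounds for seven days; 100% = DMSO vehicle control viability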", "conditions": "second compound 3.16 µM; first compound 0.316 µM; stronger effect = lower value; spheroids with HUVEC and MSC", "how_it_was_run": "as §1", "units": {"viability, T/C": "%"}}
{"smiles": "C=CC(=O)N1CCN(c2nc(=O)n(-c3c(C)ccnc3C(C)C)c3nc(-c4c(O)cccc4F)c(F)cc23)C(C)C1", "note": "(stereo unspecified) + CN(C)c1ccc(Nc2c3ccc(NC(=O)CCN4CCCC4)cc3nc3cc(NC(=O)CCN4CCCC4)ccc23)cc1", "viability, T/C": 93.8}
{"smiles": "CC1COCCN1c1cc(C2(O)CC3CCC(C2)O3)c2cnn(-c3ccn[nH]3)c2n1", "note": "(stereo unspecified) + CN(C)c1ccc(Nc2c3ccc(NC(=O)CCN4CCCC4)cc3nc3cc(NC(=O)CCN4CCCC4)ccc23)cc1", "viability, T/C": 33.6}
{"smiles": "Cc1cccc(N(C)C(=O)C2C(O)CCN2c2nc(C)cc(C(F)(F)F)c2C#N)c1", "note": "(stereo unspecified) + CN(C)c1ccc(Nc2c3ccc(NC(=O)CCN4CCCC4)cc3nc3cc(NC(=O)CCN4CCCC4)ccc23)cc1", "viability, T/C": 85}
{"smiles": "Cn1ncnc1[C@H]1c2n[nH]c(=O)c3cc(F)cc(c23)N[C@@H]1c1ccc(F)cc1", "note": "+ CN(C)c1ccc(Nc2c3ccc(NC(=O)CCN4CCCC4)cc3nc3cc(NC(=O)CCN4CCCC4)ccc23)cc1", "viability, T/C": 64.6}
{"smiles": "O=C(c1cc(Cc2n[nH]c(=O)c3ccccc23)ccc1F)N1CCN(C(=O)C2CC2)CC1", "note": "+ CN(C)c1ccc(Nc2c3ccc(NC(=O)CCN4CCCC4)cc3nc3cc(NC(=O)CCN4CCCC4)ccc23)cc1", "viability, T/C": 92.7}
{"test_system": "454973-116-R2-J3-PDC spheroids, viability, % test/control", "test": "Anticancer human tumor 454973-116-R2-J3-PDC cell line growth inhibition [GQUAD];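 further: spheroids exposed to compounds for seven days; 100% = DMSO vehicle control viability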", "conditions": "second compound 3.16 µM; first compound 1 µM; stronger effect = lower value; spheroids with HUVEC and MSC", "how_it_was_run": "as §1", "units": {"viability, T/C": "%"}}
{"smiles": "C=CC(=O)N1CCN(c2nc(=O)n(-c3c(C)ccnc3C(C)C)c3nc(-c4c(O)cccc4F)c(F)cc23)C(C)C1", "note": "(stereo unspecified) + CN(C)c1ccc(Nc2c3ccc(NC(=O)CCN4CCCC4)cc3nc3cc(NC(=O)CCN4CCCC4)ccc23)cc1", "viability, T/C": 77.7}
{"smiles": "CC1COCCN1c1cc(C2(O)CC3CCC(C2)O3)c2cnn(-c3ccn[nH]3)c2n1", "note": "(stereo unspecified) + CN(C)c1ccc(Nc2c3ccc(NC(=O)CCN4CCCC4)cc3nc3cc(NC(=O)CCN4CCCC4)ccc23)cc1", "viability, T/C": 19.9}
{"smiles": "Cc1cccc(N(C)C(=O)C2C(O)CCN2c2nc(C)cc(C(F)(F)F)c2C#N)c1", "note": "(stereo unspecified) + CN(C)c1ccc(Nc2c3ccc(NC(=O)CCN4CCCC4)cc3nc3cc(NC(=O)CCN4CCCC4)ccc23)cc1", "viability, T/C": 70.4}
{"smiles": "O=C(c1cc(Cc2n[nH]c(=O)c3ccccc23)ccc1F)N1CCN(C(=O)C2CC2)CC1", "note": "+ CN(C)c1ccc(Nc2c3ccc(NC(=O)CCN4CCCC4)cc3nc3cc(NC(=O)CCN4CCCC4)ccc23)cc1", "viability, T/C": 74.1}
{"test_system": "454973-116-R2-J3-PDC spheroids, viability, % test/control", "test": "Anticancer human tumor 454973-116-R2-J3-PDC cell line growth inhibition [GQUAD]", "conditions": "second compound 3.16 µM; first compound 3.16 µM; stronger effect = lower value; spheroids with HUVEC and MSC", "how_it_was_run": "as §1", "units": {"viability, T/C": "%"}}
{"smiles": "C=CC(=O)N1CCN(c2nc(=O)n(-c3c(C)ccnc3C(C)C)c3nc(-c4c(O)cccc4F)c(F)cc23)C(C)C1", "note": "(stereo unspecified) + CN(C)c1ccc(Nc2c3ccc(NC(=O)CCN4CCCC4)cc3nc3cc(NC(=O)CCN4CCCC4)ccc23)cc1", "viability, T/C": 103}
{"smiles": "CC1COCCN1c1cc(C2(O)CC3CCC(C2)O3)c2cnn(-c3ccn[nH]3)c2n1", "note": "(stereo unspecified) + CN(C)c1ccc(Nc2c3ccc(NC(=O)CCN4CCCC4)cc3nc3cc(NC(=O)CCN4CCCC4)ccc23)cc1", "viability, T/C": 22.4}
{"smiles": "Cc1cccc(N(C)C(=O)C2C(O)CCN2c2nc(C)cc(C(F)(F)F)c2C#N)c1", "note": "(stereo unspecified) + CN(C)c1ccc(Nc2c3ccc(NC(=O)CCN4CCCC4)cc3nc3cc(NC(=O)CCN4CCCC4)ccc23)cc1", "viability, T/C": 86.1}
{"smiles": "O=C(c1cc(Cc2n[nH]c(=O)c3ccccc23)ccc1F)N1CCN(C(=O)C2CC2)CC1", "note": "+ CN(C)c1ccc(Nc2c3ccc(NC(=O)CCN4CCCC4)cc3nc3cc(NC(=O)CCN4CCCC4)ccc23)cc1", "viability, T/C": 75.2}
{"test_system": "454973-116-R2-J3-PDC spheroids, viability, % test/control", "test": "Anticancer human tumor 454973-116-R2-J3-PDC cell line growth inhibition [GQUAD]", "conditions": "second compound 3.16 µM; first compound 10 µM; stronger effect = lower value; spheroids with HUVEC and MSC", "how_it_was_run": "as §1", "units": {"viability, T/C": "%"}}
{"smiles": "C=CC(=O)N1CCN(c2nc(=O)n(-c3c(C)ccnc3C(C)C)c3nc(-c4c(O)cccc4F)c(F)cc23)C(C)C1", "note": "(stereo unspecified) + CN(C)c1ccc(Nc2c3ccc(NC(=O)CCN4CCCC4)cc3nc3cc(NC(=O)CCN4CCCC4)ccc23)cc1", "viability, T/C": 105}
{"smiles": "CC1COCCN1c1cc(C2(O)CC3CCC(C2)O3)c2cnn(-c3ccn[nH]3)c2n1", "note": "(stereo unspecified) + CN(C)c1ccc(Nc2c3ccc(NC(=O)CCN4CCCC4)cc3nc3cc(NC(=O)CCN4CCCC4)ccc23)cc1", "viability, T/C": 14.9}
{"smiles": "Cc1cccc(N(C)C(=O)C2C(O)CCN2c2nc(C)cc(C(F)(F)F)c2C#N)c1", "note": "(stereo unspecified) + CN(C)c1ccc(Nc2c3ccc(NC(=O)CCN4CCCC4)cc3nc3cc(NC(=O)CCN4CCCC4)ccc23)cc1", "viability, T/C": 84.4}
{"smiles": "O=C(c1cc(Cc2n[nH]c(=O)c3ccccc23)ccc1F)N1CCN(C(=O)C2CC2)CC1", "note": "+ CN(C)c1ccc(Nc2c3ccc(NC(=O)CCN4CCCC4)cc3nc3cc(NC(=O)CCN4CCCC4)ccc23)cc1", "viability, T/C": 57.1}
{"test_system": "454973-116-R2-J3-PDC spheroids, viability, % test/control", "test": "Anticancer human tumor 454973-116-R2-J3-PDC cell line growth inhibition [GQUAD]", "conditions": "second compound 10 µM; first compound 0.000999 µM; stronger effect = lower value; spheroids with HUVEC and MSC", "how_it_was_run": "as §1", "units": {"viability, T/C": "%"}}
{"smiles": "Cn1ncnc1[C@H]1c2n[nH]c(=O)c3cc(F)cc(c23)N[C@@H]1c1ccc(F)cc1", "note": "+ CN(C)c1ccc(Nc2c3ccc(NC(=O)CCN4CCCC4)cc3nc3cc(NC(=O)CCN4CCCC4)ccc23)cc1", "viability, T/C": 76.1}
{"test_system": "454973-116-R2-J3-PDC spheroids, viability, % test/control", "test": "Anticancer human tumor 454973-116-R2-J3-PDC cell line growth inhibition [GQUAD]", "conditions": "second compound 10 µM; first compound 0.00316 µM; stronger effect = lower value; spheroids with HUVEC and MSC", "how_it_was_run": "as §1", "units": {"viability, T/C": "%"}}
{"smiles": "Cn1ncnc1[C@H]1c2n[nH]c(=O)c3cc(F)cc(c23)N[C@@H]1c1ccc(F)cc1", "note": "+ CN(C)c1ccc(Nc2c3ccc(NC(=O)CCN4CCCC4)cc3nc3cc(NC(=O)CCN4CCCC4)ccc23)cc1", "viability, T/C": 74.6}
{"test_system": "454973-116-R2-J3-PDC spheroids, viability, % test/control", "test": "Anticancer human tumor 454973-116-R2-J3-PDC cell line growth inhibition [GQUAD]", "conditions": "second compound 10 µM; first compound 0.00999 µM; stronger effect = lower value; spheroids with HUVEC and MSC", "how_it_was_run": "as §1", "units": {"viability, T/C": "%"}}
{"smiles": "Cn1ncnc1[C@H]1c2n[nH]c(=O)c3cc(F)cc(c23)N[C@@H]1c1ccc(F)cc1", "note": "+ CN(C)c1ccc(Nc2c3ccc(NC(=O)CCN4CCCC4)cc3nc3cc(NC(=O)CCN4CCCC4)ccc23)cc1", "viability, T/C": 72.5}
